From publication PMC3197876 (Journal of medicinal chemistry, 2011)
Entries after “also recorded” stand apart in the source; their conditions may differ. Where two headings read alike, the source gives them in different places.

What was measured:
BALB/cJ male mice = format: in vivo, mouse
β2* nAChR = β2* nAChR (Mus musculus, UniProt O70174+Q9ERK7); experiment: β2* nAChR ex vivo receptor occupancy in the thalamus; conditions: for receptor occupancy at 3 mg/kg: mouse, ip, read-out: ex vivo receptor occupancy at β2* receptors
α4β2 nAChR = α4β2 nAChR (Rattus norvegicus, UniProt P09483+P12390); format: binding; conditions: ratio of Ki values
α4β2* nAChR (native) = α4β2* nAChR (native) (Rattus norvegicus, UniProt P09483+P12390); experiment: [3H]epibatidine binding competition, rat forebrain membranes
5-HT5A = 5-HT5A (Homo sapiens, UniProt P47898); experiment: PDSP primary binding screen; conditions: read-out: %Inhibition 5-HT5A
β3 adrenergic receptor = β3 adrenergic receptor (Homo sapiens, UniProt P13945); experiment: PDSP primary binding screen; conditions: read-out: %Inhibition β3
[1] = target: H1 histaminergic receptor (Homo sapiens, UniProt P35367); experiment: PDSP primary binding screen; conditions: read-out: %Inhibition H1
M5 muscarinic receptor = target: T1, M5 muscarinic receptor (Homo sapiens, UniProt P08912); experiment: PDSP primary binding screen; conditions: read-out: %Inhibition M5
T1 sequence (P08912 1-532): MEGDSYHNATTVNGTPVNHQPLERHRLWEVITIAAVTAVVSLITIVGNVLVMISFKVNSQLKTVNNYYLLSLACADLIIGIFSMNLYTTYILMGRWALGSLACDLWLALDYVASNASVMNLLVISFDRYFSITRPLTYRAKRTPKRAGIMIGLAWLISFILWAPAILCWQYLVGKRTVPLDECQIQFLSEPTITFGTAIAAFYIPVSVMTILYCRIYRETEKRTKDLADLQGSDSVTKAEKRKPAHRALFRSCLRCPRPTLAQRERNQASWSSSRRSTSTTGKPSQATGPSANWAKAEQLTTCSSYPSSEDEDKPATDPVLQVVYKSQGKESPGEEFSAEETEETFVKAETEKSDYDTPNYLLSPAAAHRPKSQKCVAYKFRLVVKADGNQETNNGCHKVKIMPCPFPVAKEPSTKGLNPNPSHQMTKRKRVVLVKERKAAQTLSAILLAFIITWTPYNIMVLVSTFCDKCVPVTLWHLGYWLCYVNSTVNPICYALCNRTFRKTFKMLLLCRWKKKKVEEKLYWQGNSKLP

[2] = target: DAT: Dopamine Transporter (Homo sapiens, UniProt Q01959); experiment: PDSP primary binding screen; conditions: read-out: %Inhibition DAT
[3] = In vitro metabolism with human liver microsomes; format: in vitro ADME; conditions: 1 µM
[4] = In vitro metabolism with mouse liver microsomes; format: in vitro ADME; conditions: 1 µM
[5] = test system: nine different CYP450 enzymes; experiment: CYP450 inhibition; format: in vitro ADME
human α4β2-nAChR = human α4β2-nAChR (Homo sapiens, UniProt P17787+P43681); experiment: 86Rb+ efflux assay in SH-EP1-hα4β2 cells; conditions: 86Rb+ ion flux assay
[6] = intraperitoneal, 1 mg/kg, 30 min before test

SMILES	immobility in forced swim test (BALB/cJ male mice; [6])	immobility in forced swim test (BALB/cJ male mice; intraperitoneal, 3 mg/kg)	immobility in forced swim test (BALB/cJ male mice; oral, 10 mg/kg)	receptor occupancy at 3 mg/kg (β2* nAChR) [%]	selectivity for α4β2- over α3β4-nAChR (α4β2 nAChR)	Ki (α4β2* nAChR (native)) [nM]	functional characterization at α4β2-nAChRs (human α4β2-nAChR)	further results
Cl.OCCc1cc(-c2cncc(OC[C@@H]3CCN3)c2)on1 [Compound 5, 2-[5-[5-(2(S)-Azetidinylmethoxyl)-3-pyridyl]-3-isoxazolyl]ethanol Hydrochloride]	significant reduction in immobility	significant reduction in immobility	decreased the time immobile	~80				immobility in forced swim test (Figure 5) (BALB/cJ male mice; oral, all doses tested): efficacious; receptor occupancy (Figure 4, in words) (β2* nAChR; 3 mg/kg intraperitoneal, mice): higher receptor occupancy
CN[C@H]1CC[C@@H](c2ccc(Cl)c(Cl)c2)c2ccccc21 [sertraline, reference compound]								immobility in forced swim test (Figure 5) (BALB/cJ male mice; positive control in oral study, 10 or 20 mg/kg): expected decrease in immobility; immobility in forced swim test (Figure 3) (BALB/cJ male mice; positive control, intraperitoneal, 10 or 20 mg/kg): expected decrease in immobility
Cl.OCCCc1cc(-c2cncc(OC[C@@H]3CCN3)c2)on1 [Compound 3, 3-[5-[5-(2(S)-Azetidinylmethoxy)-3-pyridyl]-3-isoxazolyl]-1-propanol Hydrochloride]	insignificant trend	significant reduction in immobility	decreased the time immobile; also recorded: reduced immobility	60 to 70	~15,000 fold	1.9 ± 0.3	partial agonist	inhibition at 10 µM (5-HT5A): -17.8%; inhibition at 10 µM (β3 adrenergic receptor): -17.7%; inhibition at 10 µM [1]: -19.9%; inhibition at 10 µM (M5 muscarinic receptor): -18.9%; inhibition at 10 µM [2]: -10.1%; immobility in forced swim test (BALB/cJ male mice; oral, 1 and 3 mg/kg): failed to show significant activity; immobility in forced swim test (Figure 5) (BALB/cJ male mice; oral, lowest dose): slightly higher; metabolism with human liver microsomes [3]: no detectable metabolism; metabolism with mouse liver microsomes [4]: no detectable metabolism; inhibitory potential towards nine different CYP450 enzymes [5]: no significant inhibition
Cl.OCc1cc(-c2cncc(OC[C@@H]3CCN3)c2)on1 [Compound 4, 5-[5-(2(S)-Azetidinylmethoxy)-3-pyridyl]-3-isoxazolylmethanol Hydrochloride]				60 to 70	20,000 fold	0.61 ± 0.1	partial agonists	immobility in forced swim test (Figure 3) (BALB/cJ male mice; intraperitoneal, highest dose only): insignificant trend
